In ChEMBL document CHEMBL1147840, “Synthesis and bioactivity of 4-alkyl(aryl)thioquinazoline derivatives” (Bioorg Med Chem Lett, 2007):

Columns and labels:
Format in all cases: functional, cell-based
[1] = system: BGC-823; assay: Antitumor activity against human BGC823 cells by MTT method
[2] = system: Bcap37; assay: Antitumor activity against human Bcap37 cells by MTT method
[3] = system: PC-3; assay: Antitumor activity against human PC3 cells by MTT method

Row | IC50 [1] [µM] | IC50 [3] [µM] | SMILES | IC50 [2] [µM]
1 | 6.9 | 13.7 | COc1cc2ncnc(Nc3cccc(Br)c3)c2cc1OC | 8.9
2 | 19 | 12.2 | COc1cc(-c2nnc(Sc3ncnc4ccc(I)cc34)s2)cc(OC)c1OC | 21
3 | 28.9 | 8.9 | COc1cc(-c2nnc(Sc3ncnc4ccc(I)cc34)o2)cc(OC)c1OC | 31
4 | 39 | 1.8 | COc1cc(-c2nnc(Sc3ncnc4c(OC)c(OC)c(OC)cc34)o2)cc(OC)c1OC | 20.9
5 | 34.5 | 5.6 | COc1cc(-c2nnc(Sc3ncnc4ccccc34)o2)cc(OC)c1OC | 23.4
6 | 45.6 | 23.1 | COc1cccc(Sc2ncnc3ccccc23)c1 | 56.7
7 | 53.2 | 8.1 | COc1cccc(Sc2ncnc3c(OC)c(OC)c(OC)cc23)c1 | 45.6
8 | 29 | 40.9 | CCCSc1ncnc2ccc(I)cc12 | 42.1
9 | 31.1 | 38.9 | CCSc1ncnc2ccc(I)cc12 | 39
10 | 31.2 | 8.7 | COc1cc(-c2nnc(Sc3ncnc4c(OC)c(OC)c(OC)cc34)s2)cc(OC)c1OC | 34.7
11 | 33.2 | 28.8 | C=CCSc1ncnc2ccc(I)cc12 | 39.1
12 | 29 | 32.1 | CCCCSc1ncnc2ccc(I)cc12 | 31
13 | 61.2 | 19 | COc1cc(-c2nnc(Sc3ncnc4ccccc34)s2)cc(OC)c1OC | 50.9
14 | 78.1 | 48 | C=CCSc1ncnc2ccccc12 | 67.9
